Results from patent US9051277B2, “Phenyl(oxy/thio)alkanol derivatives” (Bayer Intellectual Property GmbH, priority 2009, dated 2015).

Legend:
Pyrenophora teres = Pyrenophora teres test (barley)/protective; type: in vivo; settings: protective, evaluation 8 days after inoculation
Description: [table] To produce a suitable preparation of active compound, 1 part by weight of active compound is mixed with the stated amounts of solvent and emulsifier, and the concentrate is diluted with water to the desired concentration. To test for protective activity, young plants are sprayed with the preparation of active compound at the stated application rate. After the spray coating has dried on, the plants are sprayed with a spore suspension of Pyrenophora teres. The plants remain in an incubation cabin at 20° C. and a relative atmospheric humidity of 100% for 48 hours.

Fusarium graminearum = assay: microbe, parasite or virus in culture; type: cell-based; settings: 168 h, read-out: inhibition of DON/AcDON production
Alternaria solani = assay: Alternaria test (tomato)/protective; type: in vivo; settings: protective, 100 ppm, evaluation 3 days after inoculation
Description: [table] To produce a suitable preparation of active compound, 1 part by weight of active compound is mixed with the stated amounts of solvent and emulsifier, and the concentrate is diluted with water to the desired concentration. To test for protective activity, young plants are sprayed with the preparation of active compound at the stated application rate. After the spray coating has dried on, the plants are inoculated with an aqueous spore suspension of Alternaria solani. The plants are then placed in an incubation cabin at about 20° C. and 100% relative atmospheric humidity.

Fusarium proliferatum = assay: Production of fumonisin FB1 by Fusarium proliferatum; type: cell-based; settings: 120 h, read-out: inhibition of fumonisin FB1 production
Brassica napus (rape) [1] = assay: Phytoregulatory post-emergence action, BRSNW; type: in vivo; settings: 80 g of a.i./ha, visual rating after about 3 weeks
Description: (§1) Seeds of monocotyledonous and dicotyledonous crop plants are placed in sandy loam in wood-fibre pots, covered with soil and cultivated in a greenhouse under good growth conditions. 2 to 3 weeks after sowing, the test plants are treated at the one-leaf stage. The test compounds, formulated as wettable powders (WP), are, with a water application rate of 600 l/ha (converted), with 0.2% of wetting agent added, sprayed at various dosages onto the green parts of the plants. After the test plants have been kept in the greenhouse under optimum growth conditions for about 3 weeks, the activity of the preparations is rated visually in comparison to untreated controls (phytoregulatory activity in percent: 100% activity=maximum inhibition of plant growth, 0% activity=plant growth like that of an untreated control.)

[2] = system: Setaria viridis (green foxtail); assay: Phytoregulatory post-emergence action, SETVI; type: in vivo; settings: 80 g of a.i./ha, visual rating after about 3 weeks
Description: as §1

Aspergillus parasiticus = assay: microbe, parasite or virus in culture; type: cell-based; settings: 168 h, read-out: inhibition of aflatoxin production
[3] = system: Triticum aestivum (common wheat); assay: Phytoregulatory post-emergence action, TRZAS; type: in vivo; settings: 80 g of a.i./ha, visual rating after about 3 weeks
Description: as §1

Brassica napus (rape) [4] = assay: Phytoregulatory pre-emergence action, BRSNW; type: in vivo; settings: 80 g of a.i./ha, visual assessment after about 3 weeks
Source text: (§2) Seeds of monocotyledonous or dicotyledonous crop plants are placed in wood-fibre pots in sandy loam and covered with soil. The test compounds, formulated in the form of wettable powders (WP), are then, as an aqueous suspension with a water application rate of 600 l/ha (converted), with 0.2% of wetting agent added, applied at various dosages to the surface of the covering soil. After the treatment, the pots are placed in a greenhouse and kept under good growth conditions for the test plants. The visual assessment of the suppression of growth in the test plants is carried out after a trial period of about 3 weeks by comparison with untreated controls (phytoregulatory activity in percent: 100% activity=maximum inhibition of plant growth, 0% activity=plant growth like that of an untreated control.)

Oryza sativa (rice) = assay: Phytoregulatory pre-emergence action, ORYSA; type: in vivo; settings: 80 g of a.i./ha, visual assessment after about 3 weeks
Source text: as §2

Row | SMILES | Efficacy in % (Pyrenophora teres; application rate 1000 ppm) | inhibition at 50 µM (Fusarium graminearum) | Efficacy in % (Alternaria solani) | inhibition at 50 µM (Fusarium proliferatum) | Inhibition of the growth of useful or harmful plants in % BRSNW (Brassica napus (rape) [1]) | Efficacy in % (Pyrenophora teres; application rate 500 ppm) | Inhibition of the growth of useful or harmful plants in % SETVI [2] | inhibition at 50 µM (Aspergillus parasiticus) | Inhibition of the growth of useful or harmful plants in % TRZAS [3] | Inhibition of the growth of useful or harmful plants in % BRSNW (Brassica napus (rape) [4]) | Inhibition of the growth of useful or harmful plants in % ORYSA (Oryza sativa (rice))
1 | CC(C)(C)C(O)(COc1ccc(I)cc1)Cn1cncn1 (stereo not shown) [Compound 1] | 86% | > 80% | 94% | > 80% |  |  |  |  |  |  | 
2 | CC(C)(C)C(O)(CSc1ccc(I)cc1)Cn1cncn1 (stereo not shown) [Compound 3] |  | > 80% |  | > 80% |  |  |  |  |  |  | 
3 | CC(C)(C)C(O)(COc1ccc(Br)cc1)c1cncnc1 (stereo not shown) [Compound 11] |  | > 80% | 99% | > 80% | 60% | 100% | 70% | > 80% | 70% | 80% | 60%
4 | CC(C)(C)C(O)(CSc1ccc(Br)cc1)c1cncnc1 (stereo not shown) [Compound 13] |  |  |  | > 80% |  |  |  |  |  |  | 
5 | CC(C)C(O)(COc1ccc(Br)cc1)c1cncnc1 (stereo not shown) [Compound 21] |  | > 80% |  | > 80% |  |  |  |  |  |  | 
6 | CC(C)(C)C(O)(COc1ccc(Cl)cc1)c1cncnc1 (stereo not shown) [EP-A 0 028 755, Example 1, reference compound] |  |  | 75% |  | 60% | 93% | 50% |  | 50% | 70% | 40%
7 | CC(C)(C)C(O)(COc1ccc(Cl)cc1)Cn1cncn1 (stereo not shown) [EP-A 0 040 345, Example I-1, reference compound] | 57% |  | 45% |  |  |  |  |  |  |  | 
